Data on one compound can be found in PMC2739411 (Anesthesiology, 2009).

This test concerns the target γ-aminobutyric acid type A (GABAA) receptor α1β2γ2L (Homo sapiens, UniProt P14867+P47870). The experiment in a line: two-electrode voltage clamp in oocytes. Particulars: read-out: % enhancement of EC5-10 GABA current at 8 μM. It is filed as cell-based. On the technique in general: In two-electrode clamp one electrode senses voltage and the other passes current.

The structures appear in SMILES notation.

γ-aminobutyric acid type A (GABAA) receptor α1β2γ2L, sequence (P47870 26-512): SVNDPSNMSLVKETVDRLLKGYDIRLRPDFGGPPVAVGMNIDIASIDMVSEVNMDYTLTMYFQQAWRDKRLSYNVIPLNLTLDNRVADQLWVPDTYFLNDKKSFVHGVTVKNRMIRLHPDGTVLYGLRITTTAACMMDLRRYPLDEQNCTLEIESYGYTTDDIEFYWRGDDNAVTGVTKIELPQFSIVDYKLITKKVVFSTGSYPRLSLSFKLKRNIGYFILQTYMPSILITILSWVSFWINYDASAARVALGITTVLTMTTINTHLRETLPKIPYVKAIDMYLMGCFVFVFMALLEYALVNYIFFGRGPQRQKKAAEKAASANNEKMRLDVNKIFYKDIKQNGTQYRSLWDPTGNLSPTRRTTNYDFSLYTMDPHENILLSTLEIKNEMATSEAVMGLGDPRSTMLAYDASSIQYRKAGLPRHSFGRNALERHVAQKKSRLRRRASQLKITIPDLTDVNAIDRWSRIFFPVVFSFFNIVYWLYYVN
γ-aminobutyric acid type A (GABAA) receptor α1β2γ2L, sequence (P14867 28-456): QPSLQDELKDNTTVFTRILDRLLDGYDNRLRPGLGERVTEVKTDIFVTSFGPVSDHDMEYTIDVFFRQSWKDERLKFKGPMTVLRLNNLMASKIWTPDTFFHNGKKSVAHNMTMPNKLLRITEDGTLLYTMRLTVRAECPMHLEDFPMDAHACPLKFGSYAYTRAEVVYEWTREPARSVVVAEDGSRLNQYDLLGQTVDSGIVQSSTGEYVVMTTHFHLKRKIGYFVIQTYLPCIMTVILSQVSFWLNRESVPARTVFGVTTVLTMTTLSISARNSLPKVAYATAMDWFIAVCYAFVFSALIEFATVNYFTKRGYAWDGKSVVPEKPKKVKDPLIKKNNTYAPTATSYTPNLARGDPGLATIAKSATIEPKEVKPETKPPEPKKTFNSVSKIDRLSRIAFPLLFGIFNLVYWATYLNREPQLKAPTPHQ
γ-aminobutyric acid type A (GABAA) receptor α1β2γ2L, sequence (P18507 40-475 partner): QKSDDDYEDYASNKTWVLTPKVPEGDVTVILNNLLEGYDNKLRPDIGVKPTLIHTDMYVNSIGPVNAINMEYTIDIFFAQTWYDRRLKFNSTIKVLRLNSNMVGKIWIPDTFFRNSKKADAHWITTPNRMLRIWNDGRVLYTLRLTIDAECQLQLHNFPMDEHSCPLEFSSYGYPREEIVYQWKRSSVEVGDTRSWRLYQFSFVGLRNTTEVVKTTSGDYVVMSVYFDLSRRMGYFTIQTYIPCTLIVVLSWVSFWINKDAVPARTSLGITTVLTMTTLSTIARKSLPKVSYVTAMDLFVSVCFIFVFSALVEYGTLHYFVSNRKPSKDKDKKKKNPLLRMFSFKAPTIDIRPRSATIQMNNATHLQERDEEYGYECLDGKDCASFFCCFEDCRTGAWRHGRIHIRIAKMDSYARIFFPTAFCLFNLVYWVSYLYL

As for `COC(=O)CCOC(=O)c1cncn1[C@H](C)c1ccccc1` [compound 3, (R)-3-methoxy-3-oxopropyl1-(1-phenylethyl)-1H-imidazole-5-carboxylate], the activation at 8 µM was 450 ± 130%.
